Earlier results, collected in patent US10813957B2, “Engineered oncolytic viruses containing hyper-binding sites to sequester and suppress activity of oncogenic transcription factors as a novel treatment for human cancer” (priority 2016, dated 2020).

Conditions: background statement

For `NC(=O)OC[C@H]1c2c(O)cc(C=O)cc2N2CC3N[C@@H]3[C@]1(O)O2` (stereo partly shown) [FR900482], the toxicity in humans is listed as “high toxicity”.
